Here are results for six compounds from patent US8802593B2 (priority 2009, dated 2014).

What all share (type): in vivo
One assay relates to Fusarium graminearum. As to conditions: corn (Pioneer) seeds; QoI alone 10 g per 100 kg seeds; 15° C. for 15 days; seedling emergence.
A further assay concerns Fusarium avenaceum. The assay is described as follows: Test Example 4: seed treatment of corn, soil with Fusarium avenaceum, control value. Conditions: corn (Pioneer) seeds; azoxystrobin alone 10 g per 100 kg seeds; 15° C. for 15 days; seedling emergence. On the procedure:
A DMSO solution of the compound I and a DMSO solution of azoxystrobin were respectively prepared. These solutions were mixed to prepare a DMSO solution containing predetermined concentrations of the compound I and azoxystrobin. Twenty-five (25) μL of each of the DMSO solution and 10 g of seeds of corn (Pioneer) were mixed by shaking in a 50-ml conical tube and then allowed to stand overnight to prepare treated seeds. A plastic pot was filled with sandy soil and the treated seeds were sown on it and then covered with sandy soil which had been mixed with a bran culture of Fusarium avenaceum. The sown seeds were watered and then cultured in a greenhouse at 15° C. for 15 days. The number of emerged seedlings was checked and the incidence of disease was calculated by Equation 4.
For comparison, a DMSO solution containing a predetermined concentration of azoxystrobin was prepared and subjected to the same test and then the incidence of disease was determined.
(§1) In order to calculate a control value, the same test was conducted in which the plants had been treated with none of the test compounds and the incidence of disease was determined.
The control value was calculated by the Equation 2 based on the incidence of disease thus determined.

Assay [1] concerns Fusarium solani f. sp. pisi. The assay can be described thus: Test Example 1: seed treatment of pea, pea root rot, control value. Conditions: Pisum sativum L seeds, Compound I 0, pea root rot after 16 days. On the procedure:
A DMSO solution of the compound I and a DMSO solution of the compound (1b) were respectively prepared. These solutions were mixed to prepare a DMSO solution containing predetermined concentrations of the compound I and the compound (1b). Ten (10) μL of the DMSO solution and 10 g of seeds of Pisum sativum L were mixed by shaking in a 50-ml conical tube and then allowed to stand overnight to prepare treated seeds. A plastic pot was filled with sandy soil and the treated seeds were sown on it and then covered with sandy soil which had been mixed with a bran culture of Fusarium solani f. sp. pisi. The sown seeds were watered and then cultured in a greenhouse at 20 to 24° C. […] After 16 days, the occurrence of pea root rot diseases was checked and the incidence of disease was calculated by Equation 1.
For comparison, a DMSO solution containing a predetermined concentration of the compound (1b) was prepared and subjected to the same test and then the incidence of disease was determined.
as §1
(§2) The control value was calculated by the Equation 2 based on the incidence of disease thus determined. […]

The test system of the next assay is wheat leaf rust. The assay can be described thus: Test Example 2: foliar spray on wheat, wheat leaf rust, control value. As to conditions: wheat (SHIROGANEKOMUGI) leaf spray, Compound I 0, 8 days at 23° C. On the procedure: A plastic pot was filled with sandy soil and seeds of wheat (SHIROGANEKOMUGI) were sown on it, followed by cultivation in a greenhouse for 10 days. A wettable powder of the compound I was prepared by mixing 10 parts of the compound I, 35 parts of a mixture of white carbon and a polyoxyethylene alkyl ether sulfate ammonium salt (weight ratio of 1:1) and 55 parts of […], followed by grinding the mixture. A wettable powder of the compound (1b) was prepared by mixing 10 parts of the compound (1b), 35 parts of a mixture of white carbon and a polyoxyethylene alkyl ether sulfate ammonium salt (weight ratio of 1:1) and 55 parts of […], followed by grinding the mixture. […] After allowing to stand overnight at 23° C. under high humidity followed by cultivation in an artificial climate laboratory at 23° C. for 8 days, leaf area and lesion area of the wheat leaves were checked and the incidence of disease was calculated by Equation 3. […]
as §1, §2

SMILES strings stand for the structures.

In turn, `CON=C(C(=O)OC)c1ccccc1CON=C(C)c1cccc(C(F)(F)F)c1` [trifloxystrobin] returned a Control value in the assay on Fusarium graminearum of 83.
Same read-out and setting: then `CO/N=C(/C(=O)OC)c1ccccc1COc1ccccc1C` [kresoxim-methyl], with 67; and `COC(=O)N(OC)c1ccccc1COc1ccn(-c2ccc(Cl)cc2)n1` [pyraclostrobin], with 83.
`CO/C=C(/C(=O)OC)c1ccccc1Oc1cc(Oc2ccccc2C#N)ncn1` [azoxystrobin] displayed a Control value with Fusarium avenaceum of 67.
Compound `COC(=O)NCc1cc(/C(C)=N/OCc2cccc(C)n2)ccc1Cl` [pyribencarb] returned a Control value with Fusarium graminearum of 83.
Turning to `CNC(=O)C(OC)c1ccccc1COc1cc(C)ccc1C` (racemic) [Compound (1b)], the Control value stood at 64 in assay [1] (Compound (1b) 1 g/100 kg seeds); 64 in assay [1] (Compound (1b) 5 g/100 kg seeds); 50 in the assay with wheat leaf rust (Compound (1b) 10 ppm); 81 in the assay on wheat leaf rust (Compound (1b) 20 ppm); 83 in the assay on Fusarium graminearum.
